Among the test systems are BT-549; SK-OV-3; HL-60; M14; MDA-N; LOX IMVI; HOP-62; MDA-MB-231; NCI/ADR-RES; SF-539; EKVX; SNB-19; Hs-578T; UACC-62; RXF 393; CCRF-CEM; SK-MEL-28; SN12C; NCI-H460; U-251.
Holding throughout (assay): growth of human tumour cells (NCI), 48 h

The structures appear in SMILES notation.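 How tested: cells in 96-well plates exposed to compound for 48 hours at five concentrations. Abbreviation: GI50, concentration required for 50% inhibition of growth.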 The source made the active and inactive calls. Rule as the data show it: active = GI50 up to about 1.1 µM and inactive = higher. Some results are limits rather than exact numbers.

For the molecule `CCOc1cc2c(c(OCC)c1O)CC[C@@H]1[C@@H]2CC[C@]2(C)[C@@H](O)CC[C@@H]12`, the GI50 in the experiment on BT-549 was 0.418 µM (active); with SK-OV-3, 4.75 µM (inactive); in the experiment with HL-60, 0.297 µM (active); in the experiment on M14, 3.05 µM (inactive); in the experiment with MDA-N it was 0.234 µM (active); in the experiment with LOX IMVI, 2.23 µM (inactive). The GI50 with HOP-62 is 1.32 µM (inactive); in the experiment on MDA-MB-231, 2.62 µM (inactive); in the experiment on NCI/ADR-RES it was 3.23 µM (inactive); in the experiment with SF-539, 1.48 µM (inactive); in the experiment on EKVX, 6.1 µM (inactive); with SNB-19 it was 1.25 µM (inactive). The GI50 with Hs-578T is 4.68 µM (inactive); in the experiment on UACC-62, 0.482 µM (active); with RXF 393 it was 2.21 µM (inactive); with CCRF-CEM it was 1.7 µM (inactive).
Take `C/C(=N\Nc1ccc2ccccc2n1)c1ccccc1O`: the GI50 in the experiment on BT-549 is > 100 µM (inactive); with SK-OV-3, 29.8 µM (inactive); in the experiment on HL-60 it was > 100 µM (inactive); in the experiment with SK-MEL-28 it was > 100 µM (inactive); in the experiment on M14, > 100 µM (inactive); in the experiment with MDA-N, > 100 µM (inactive). The GI50 in the experiment with SN12C was > 100 µM (inactive); in the experiment on LOX IMVI, > 100 µM (inactive); with HOP-62, 14 µM (inactive); with NCI-H460 it was > 92.5 µM (inactive); with MDA-MB-231 it was > 83 µM (inactive); in the experiment on NCI/ADR-RES it was > 37.5 µM (inactive). Further, the GI50 with SF-539 was > 68.9 µM (inactive); with EKVX it was 19.6 µM (inactive); in the experiment with SNB-19, > 63.8 µM (inactive); in the experiment with U-251 it was 54.1 µM (inactive); with Hs-578T, > 83.2 µM (inactive); with UACC-62, > 100 µM (inactive). Besides, the GI50 in the experiment on RXF 393 was > 72.6 µM (inactive); in the experiment with CCRF-CEM, 3.33 µM (inactive).
With `c1ccc(-c2c(-c3cccs3)[nH]c(-c3cccs3)c2-c2ccccn2)nc1`, the GI50 in the experiment with BT-549 is 22.2 µM (inactive); in the experiment on SK-OV-3, 21.9 µM (inactive); with HL-60, 26.5 µM (inactive); in the experiment on M14, 20.2 µM (inactive); with MDA-N it was 0.199 µM (active); in the experiment with SN12C, 21.1 µM (inactive). The GI50 is 12.4 µM (inactive) in the experiment on LOX IMVI; 21.3 µM (inactive) with NCI-H460; 20.3 µM (inactive) in the experiment on MDA-MB-231; 17.2 µM (inactive) in the experiment on NCI/ADR-RES; 20.4 µM (inactive) with SF-539; 22.9 µM (inactive) in the experiment on EKVX. The GI50 was 33.5 µM (inactive) in the experiment on SNB-19; 20.2 µM (inactive) in the experiment with U-251; 33.4 µM (inactive) in the experiment on Hs-578T; 18 µM (inactive) in the experiment with UACC-62; 20.5 µM (inactive) with RXF 393; 8.24 µM (inactive) with CCRF-CEM.
For `C=C1CC[C@@H]2[C@](C)(COC(=O)CCC(=O)O)CCC[C@@]2(C)[C@@H]1CCC1=CC(=O)OC1`, the GI50 in the experiment on BT-549, in the experiment with SK-OV-3, in the experiment on HL-60, with SK-MEL-28, in the experiment on M14 and in the experiment with MDA-N was > 100 µM (inactive) each time. Moreover, the GI50 with SN12C, with LOX IMVI, in the experiment with HOP-62, in the experiment on MDA-MB-231, with NCI/ADR-RES and in the experiment with SF-539 was > 100 µM (inactive) in each case. Besides, the GI50 with EKVX, in the experiment on SNB-19, in the experiment with U-251, with Hs-578T, with UACC-62 and in the experiment on RXF 393 was > 100 µM (inactive) in each case. For the same molecule, the GI50 in the experiment with CCRF-CEM was > 100 µM (inactive).
In the case of `Oc1ccc(Cl)cc1-c1nc(S)nc(-c2ccccc2)c1Cl`, the GI50 is 44.7 µM (inactive) with BT-549; > 96.4 µM (inactive) with SK-OV-3; > 100 µM (inactive) with HL-60; > 100 µM (inactive) with SK-MEL-28; > 100 µM (inactive) with M14; > 100 µM (inactive) in the experiment with MDA-N. Besides, the GI50 was > 100 µM (inactive) in the experiment on SN12C; > 56.9 µM (inactive) with LOX IMVI; 31.1 µM (inactive) in the experiment with HOP-62; > 100 µM (inactive) in the experiment with NCI-H460; > 56.4 µM (inactive) in the experiment with MDA-MB-231; > 100 µM (inactive) with NCI/ADR-RES. Further, the GI50 in the experiment on SF-539 was > 10 µM (inactive); with SNB-19 it was 69.2 µM (inactive); with U-251, 43.2 µM (inactive); with Hs-578T, 22.9 µM (inactive); in the experiment on UACC-62, > 10 µM (inactive); with RXF 393, 45 µM (inactive). In the experiment on CCRF-CEM, the GI50 is > 100 µM (inactive).
For the molecule `O=c1/c(=C/c2ccc(-c3ccc(Cl)cc3Cl)o2)sc2n1[C@@H](c1ccc3c(c1)OCO3)C=C(c1cc(F)c(Cl)cc1Cl)N=2`, the GI50 is 37.8 µM (inactive) in the experiment with BT-549; 21.5 µM (inactive) with SK-OV-3; 27.2 µM (inactive) in the experiment on HL-60; 91.8 µM (inactive) in the experiment with SK-MEL-28; 28 µM (inactive) in the experiment on M14; 37.8 µM (inactive) in the experiment on MDA-N. The GI50 in the experiment on SN12C is 57.3 µM (inactive); in the experiment on LOX IMVI, 34.8 µM (inactive); in the experiment on HOP-62 it was 5.87 µM (inactive); in the experiment on NCI-H460 it was 37 µM (inactive); in the experiment with MDA-MB-231, 22.6 µM (inactive); with NCI/ADR-RES it was 45.9 µM (inactive). The GI50 with SF-539 is 35.3 µM (inactive); in the experiment on SNB-19 it was 28.8 µM (inactive); in the experiment on U-251 it was 29.4 µM (inactive); in the experiment on Hs-578T, 14 µM (inactive); in the experiment on UACC-62 it was 16 µM (inactive); in the experiment on RXF 393, 39.4 µM (inactive). Further, the GI50 with CCRF-CEM is 38.7 µM (inactive).
For `Cc1ccc(C2=CC(=O)/C(=C\C(=O)c3ccc(Cl)cc3)O2)cc1`, the GI50 with BT-549 is 1.86 µM (inactive); in the experiment on SK-OV-3, 6.43 µM (inactive); with HL-60, 0.902 µM (active); in the experiment on SK-MEL-28, 16.9 µM (inactive); in the experiment with M14, 18.3 µM (inactive); in the experiment with MDA-N, 3.2 µM (inactive). Besides, the GI50 in the experiment on LOX IMVI is 1.43 µM (inactive); with HOP-62 it was 97.9 µM (inactive); in the experiment with NCI-H460, > 10 µM (inactive); with MDA-MB-231 it was 12.1 µM (inactive); in the experiment with NCI/ADR-RES, 15.5 µM (inactive); in the experiment with SF-539, 21.2 µM (inactive). Further, the GI50 in the experiment on EKVX is 70 µM (inactive); with SNB-19 it was 49.2 µM (inactive); with U-251, 17.7 µM (inactive); in the experiment on Hs-578T it was 23.9 µM (inactive); with UACC-62 it was 11.6 µM (inactive); with RXF 393, 4.6 µM (inactive). Further, in the experiment with CCRF-CEM, the GI50 is 3.19 µM (inactive).
Regarding `COc1ccc(-c2sc(Br)c3c2C(=O)C2OC(=O)NC32)cc1OC` (configuration not stated), the GI50 in the experiment on BT-549, in the experiment on SK-OV-3, with HL-60, in the experiment on M14, in the experiment on MDA-N and in the experiment on SN12C was > 100 µM (inactive) in each case. Moreover, the GI50 in the experiment with LOX IMVI was 45.2 µM (inactive); with HOP-62 it was > 100 µM (inactive); with NCI-H460 it was > 100 µM (inactive); with MDA-MB-231, > 100 µM (inactive); in the experiment with NCI/ADR-RES, > 100 µM (inactive); in the experiment with SF-539, > 100 µM (inactive). Further, the GI50 with EKVX, in the experiment on SNB-19, in the experiment with U-251, in the experiment with Hs-578T, with UACC-62 and in the experiment with RXF 393 was > 100 µM (inactive) each time. In addition, the GI50 with CCRF-CEM is > 100 µM (inactive).
As to `COC(=O)/C(=C(\C)NC(C)=O)c1c(C(=O)OC)[nH]c2ccccc12`, the GI50 with BT-549, in the experiment on SK-OV-3, in the experiment with HL-60, with SK-MEL-28, with M14 and with MDA-N was > 100 µM (inactive) in each case. Also, the GI50 in the experiment on SN12C, in the experiment with LOX IMVI, in the experiment on HOP-62, in the experiment on NCI-H460, in the experiment with MDA-MB-231 and in the experiment with NCI/ADR-RES was > 100 µM (inactive) throughout. Further, the GI50 with SF-539, with EKVX, in the experiment with SNB-19, in the experiment on U-251, in the experiment on Hs-578T and in the experiment on UACC-62 was > 100 µM (inactive) each time. Besides, the GI50 with RXF 393 and with CCRF-CEM was > 100 µM (inactive) each time.
For the molecule `CCCCc1ccc(Nc2nc3ncnc-3c[nH]2)cc1`, the GI50 in the experiment on BT-549 was 25.7 µM (inactive); in the experiment with SK-OV-3, 18.4 µM (inactive); with HL-60, 38.5 µM (inactive); with M14, 18.6 µM (inactive); in the experiment with MDA-N it was 32.8 µM (inactive); with SN12C, 18.8 µM (inactive). The GI50 in the experiment on LOX IMVI is 20.5 µM (inactive); in the experiment on HOP-62, 17.7 µM (inactive); in the experiment with MDA-MB-231 it was 12.8 µM (inactive); with NCI/ADR-RES, 18.3 µM (inactive); with SF-539, 26.7 µM (inactive); with EKVX, 25.8 µM (inactive). The GI50 with SNB-19 is 18.2 µM (inactive); in the experiment on U-251, 22.1 µM (inactive); with Hs-578T it was 5.52 µM (inactive); in the experiment on UACC-62, 21 µM (inactive); in the experiment with RXF 393, 18.5 µM (inactive); in the experiment on CCRF-CEM, 7.94 µM (inactive).

Source of the values: ChEMBL document CHEMBL1201862, “PubChem BioAssay data set” (2004).
